Assay results published in the NIST ThermoML archive (doi:10.1021/je5009679).
± gives the expanded uncertainty stated by the source.

Conditions: Liquid; for viscosity: Concentric cylinders viscometry

CCOP(=O)([O-])OCC.CCn1cc[n+](C)c1 [1-ethyl-3-methylimidazolium diethyl phosphate]
101.33 kPa
Conditions | viscosity [mPa·s]
293.15 K | 664.7 ± 38
303.15 K | 317.3 ± 16
313.15 K | 173.9 ± 8.6
323.15 K | 103.8 ± 5
333.15 K | 66.37 ± 3.1
343.15 K | 44.92 ± 2.1
353.15 K | 31.86 ± 1.5
363.15 K | 23.5 ± 1.1
373.15 K | 17.92 ± 0.84

Conditions | mass density [kg/m3]
293.15 K, 101.33 kPa, Vibrating tube method | 1148.2 ± 1.1
303.15 K, 101.33 kPa, Vibrating tube method | 1141.2 ± 1.1
311.4 K, 10000 kPa, Bellows volumetry | 1140.5 ± 1.4
311.4 K, 20000 kPa, Bellows volumetry | 1145.4 ± 1.4
311.4 K, 30000 kPa, Bellows volumetry | 1150.1 ± 1.4
311.4 K, 40000 kPa, Bellows volumetry | 1154.6 ± 1.4
311.4 K, 50000 kPa, Bellows volumetry | 1158.9 ± 1.4
311.4 K, 60000 kPa, Bellows volumetry | 1163 ± 1.4
311.4 K, 70000 kPa, Bellows volumetry | 1167 ± 1.4
311.4 K, 80000 kPa, Bellows volumetry | 1170.9 ± 1.4
311.4 K, 90000 kPa, Bellows volumetry | 1174.6 ± 1.4
311.4 K, 100000 kPa, Bellows volumetry | 1178.3 ± 1.4
311.4 K, 110000 kPa, Bellows volumetry | 1181.8 ± 1.4
311.4 K, 120000 kPa, Bellows volumetry | 1185.2 ± 1.4
311.4 K, 130000 kPa, Bellows volumetry | 1188.6 ± 1.4
311.4 K, 140000 kPa, Bellows volumetry | 1191.8 ± 1.4
311.4 K, 150000 kPa, Bellows volumetry | 1195.2 ± 1.4
311.4 K, 160000 kPa, Bellows volumetry | 1198.2 ± 1.4
311.4 K, 170000 kPa, Bellows volumetry | 1201.4 ± 1.4
311.4 K, 180000 kPa, Bellows volumetry | 1204.4 ± 1.4
311.4 K, 190000 kPa, Bellows volumetry | 1207.3 ± 1.4
311.4 K, 200000 kPa, Bellows volumetry | 1210.3 ± 1.4
313.15 K, 101.33 kPa, Vibrating tube method | 1134.4 ± 1
323.15 K, 101.33 kPa, Vibrating tube method | 1127.8 ± 1
331.3 K, 10000 kPa, Bellows volumetry | 1127.5 ± 1.4
331.3 K, 20000 kPa, Bellows volumetry | 1132.6 ± 1.4
331.3 K, 30000 kPa, Bellows volumetry | 1137.6 ± 1.4
331.3 K, 40000 kPa, Bellows volumetry | 1142.3 ± 1.4
331.3 K, 50000 kPa, Bellows volumetry | 1146.8 ± 1.4
331.3 K, 60000 kPa, Bellows volumetry | 1151.2 ± 1.4
331.3 K, 70000 kPa, Bellows volumetry | 1155.3 ± 1.4
331.3 K, 80000 kPa, Bellows volumetry | 1159.4 ± 1.4
331.3 K, 90000 kPa, Bellows volumetry | 1163.2 ± 1.4
331.3 K, 100000 kPa, Bellows volumetry | 1167.1 ± 1.4
331.3 K, 110000 kPa, Bellows volumetry | 1170.7 ± 1.4
331.3 K, 120000 kPa, Bellows volumetry | 1174.4 ± 1.4
331.3 K, 130000 kPa, Bellows volumetry | 1177.8 ± 1.4
331.3 K, 140000 kPa, Bellows volumetry | 1181.3 ± 1.4
331.3 K, 150000 kPa, Bellows volumetry | 1184.8 ± 1.4
331.3 K, 160000 kPa, Bellows volumetry | 1187.9 ± 1.4
331.3 K, 170000 kPa, Bellows volumetry | 1191 ± 1.4
331.3 K, 180000 kPa, Bellows volumetry | 1194.1 ± 1.4
331.3 K, 190000 kPa, Bellows volumetry | 1197.3 ± 1.4
331.3 K, 200000 kPa, Bellows volumetry | 1200.2 ± 1.4
333.15 K, 101.33 kPa, Vibrating tube method | 1121.2 ± 1
343.15 K, 101.33 kPa, Vibrating tube method | 1114.6 ± 1
351.4 K, 10000 kPa, Bellows volumetry | 1114.6 ± 1.4
351.4 K, 20000 kPa, Bellows volumetry | 1120 ± 1.4
351.4 K, 30000 kPa, Bellows volumetry | 1125.2 ± 1.4
351.4 K, 40000 kPa, Bellows volumetry | 1130.2 ± 1.4
351.4 K, 50000 kPa, Bellows volumetry | 1134.9 ± 1.4
351.4 K, 60000 kPa, Bellows volumetry | 1139.5 ± 1.4
351.4 K, 70000 kPa, Bellows volumetry | 1144 ± 1.4
351.4 K, 80000 kPa, Bellows volumetry | 1148.1 ± 1.4
351.4 K, 90000 kPa, Bellows volumetry | 1152.2 ± 1.4
351.4 K, 100000 kPa, Bellows volumetry | 1156.1 ± 1.4
351.4 K, 110000 kPa, Bellows volumetry | 1159.9 ± 1.4
351.4 K, 120000 kPa, Bellows volumetry | 1163.6 ± 1.4
351.4 K, 130000 kPa, Bellows volumetry | 1167.2 ± 1.4
351.4 K, 140000 kPa, Bellows volumetry | 1170.7 ± 1.4
351.4 K, 150000 kPa, Bellows volumetry | 1174.2 ± 1.4
351.4 K, 160000 kPa, Bellows volumetry | 1177.5 ± 1.4
351.4 K, 170000 kPa, Bellows volumetry | 1180.8 ± 1.4
351.4 K, 180000 kPa, Bellows volumetry | 1184 ± 1.4
351.4 K, 190000 kPa, Bellows volumetry | 1187.1 ± 1.4
351.4 K, 200000 kPa, Bellows volumetry | 1190.3 ± 1.4
353.15 K, 101.33 kPa, Vibrating tube method | 1108 ± 1
363.15 K, 101.33 kPa, Vibrating tube method | 1101.5 ± 1
371.6 K, 10000 kPa, Bellows volumetry | 1102 ± 1.4
371.6 K, 20000 kPa, Bellows volumetry | 1107.7 ± 1.4
371.6 K, 30000 kPa, Bellows volumetry | 1113.3 ± 1.4
371.6 K, 40000 kPa, Bellows volumetry | 1118.5 ± 1.4
371.6 K, 50000 kPa, Bellows volumetry | 1123.4 ± 1.4
371.6 K, 60000 kPa, Bellows volumetry | 1128.2 ± 1.4
371.6 K, 70000 kPa, Bellows volumetry | 1132.7 ± 1.4
371.6 K, 80000 kPa, Bellows volumetry | 1137.2 ± 1.4
371.6 K, 90000 kPa, Bellows volumetry | 1141.3 ± 1.4
371.6 K, 100000 kPa, Bellows volumetry | 1145.5 ± 1.4
371.6 K, 110000 kPa, Bellows volumetry | 1149.4 ± 1.4
371.6 K, 120000 kPa, Bellows volumetry | 1153.2 ± 1.4
371.6 K, 130000 kPa, Bellows volumetry | 1157 ± 1.4
371.6 K, 140000 kPa, Bellows volumetry | 1160.6 ± 1.4
371.6 K, 150000 kPa, Bellows volumetry | 1164.2 ± 1.4
371.6 K, 160000 kPa, Bellows volumetry | 1167.7 ± 1.4
371.6 K, 170000 kPa, Bellows volumetry | 1171 ± 1.4
371.6 K, 180000 kPa, Bellows volumetry | 1174.3 ± 1.4
371.6 K, 190000 kPa, Bellows volumetry | 1177.5 ± 1.4
371.6 K, 200000 kPa, Bellows volumetry | 1180.8 ± 1.4
373.15 K, 101.33 kPa, Vibrating tube method | 1094.9 ± 1
391.6 K, 10000 kPa, Bellows volumetry | 1089.8 ± 1.4
391.6 K, 20000 kPa, Bellows volumetry | 1095.6 ± 1.4
391.6 K, 30000 kPa, Bellows volumetry | 1101.5 ± 1.4
391.6 K, 40000 kPa, Bellows volumetry | 1107 ± 1.4
391.6 K, 50000 kPa, Bellows volumetry | 1112.3 ± 1.4
391.6 K, 60000 kPa, Bellows volumetry | 1117.2 ± 1.4
391.6 K, 70000 kPa, Bellows volumetry | 1122 ± 1.4
391.6 K, 80000 kPa, Bellows volumetry | 1126.6 ± 1.4
391.6 K, 90000 kPa, Bellows volumetry | 1131 ± 1.4
391.6 K, 100000 kPa, Bellows volumetry | 1135.2 ± 1.4
391.6 K, 110000 kPa, Bellows volumetry | 1139.4 ± 1.4
391.6 K, 120000 kPa, Bellows volumetry | 1143.4 ± 1.4
391.6 K, 130000 kPa, Bellows volumetry | 1147.1 ± 1.4
391.6 K, 140000 kPa, Bellows volumetry | 1151 ± 1.4
391.6 K, 150000 kPa, Bellows volumetry | 1154.6 ± 1.4
391.6 K, 160000 kPa, Bellows volumetry | 1158.1 ± 1.4
391.6 K, 170000 kPa, Bellows volumetry | 1161.5 ± 1.4
391.6 K, 180000 kPa, Bellows volumetry | 1165 ± 1.4
391.6 K, 190000 kPa, Bellows volumetry | 1168.2 ± 1.4
391.6 K, 200000 kPa, Bellows volumetry | 1171.5 ± 1.4
411.7 K, 10000 kPa, Bellows volumetry | 1077.9 ± 1.4
411.7 K, 20000 kPa, Bellows volumetry | 1084.3 ± 1.4
411.7 K, 30000 kPa, Bellows volumetry | 1090.4 ± 1.4
411.7 K, 40000 kPa, Bellows volumetry | 1096.2 ± 1.4
411.7 K, 50000 kPa, Bellows volumetry | 1101.7 ± 1.4
411.7 K, 60000 kPa, Bellows volumetry | 1106.9 ± 1.4
411.7 K, 70000 kPa, Bellows volumetry | 1111.9 ± 1.4
411.7 K, 80000 kPa, Bellows volumetry | 1116.7 ± 1.4
411.7 K, 90000 kPa, Bellows volumetry | 1120.6 ± 1.4
411.7 K, 100000 kPa, Bellows volumetry | 1125.1 ± 1.4
411.7 K, 110000 kPa, Bellows volumetry | 1129.3 ± 1.4
411.7 K, 120000 kPa, Bellows volumetry | 1133.4 ± 1.4
411.7 K, 130000 kPa, Bellows volumetry | 1137.4 ± 1.4
411.7 K, 140000 kPa, Bellows volumetry | 1141.2 ± 1.4
411.7 K, 150000 kPa, Bellows volumetry | 1145 ± 1.4
411.7 K, 160000 kPa, Bellows volumetry | 1148.7 ± 1.4
411.7 K, 170000 kPa, Bellows volumetry | 1152.3 ± 1.4
411.7 K, 180000 kPa, Bellows volumetry | 1155.8 ± 1.4
411.7 K, 190000 kPa, Bellows volumetry | 1159.2 ± 1.4
411.7 K, 200000 kPa, Bellows volumetry | 1162.6 ± 1.4
